US20110015413A1, “PROCESS FOR PREPARING CRYSTALLINE CALCIUM MUPIROCIN DIHYDRATE” (priority 2008, published 2011)

Key:
[1] = amorphous form, quoted description; cited from earlier work
[2] = amorphous form, quoted description; cited from earlier work; remark: listed apart in the source
[3] = Morphology and particle size by thermal field scanning electron microscopy (FE SEM); type: physicochemical; conditions: fused primary particles formed during crystallisation, FIG. 2
Text: The morphology of crystalline mupirocin calcium dihydrate produced according to the procedure of Example 2 was examined by thermal field scanning electron microscopy (FE SEM). An FE SEM microscope, model JSM-7000F, manufactured by Jeol Ltd., Japan, was used in the inspection of samples. The FE SEM microscope was coupled with an EDS/INCA 350 (energy dispersive X-ray analyzer) manufactured by Oxford Instruments Ltd. The samples inspected by FE SEM were not coated with a conductive layer. […] Calcium mupirocin dihydrate crystallize in a columnar particle shape having a mean particle size from about 100 to about 700 nm. During the crystallisation process primary particles, i.e., crystals, are fused to form agglomerates (FIG. 2) having a mean particle size of about 10 μm. During the drying process, the agglomerates adhere to each other, forming aggregates having a mean particle size from about 30 μm to about 400 μm.

| Structure (SMILES) | thermal stability [1] | water solubility [2] | mean particle size of agglomerates [3] |
| --- | --- | --- | --- |
| C/C(=C\C(=O)OCCCCCCCCC(=O)[O-])C[C@@H]1OC[C@H](C[C@@H]2O[C@H]2[C@@H](C)[C@H](C)O)[C@@H](O)[C@H]1O.C/C(=C\C(=O)OCCCCCCCCC(=O)[O-])C[C@@H]1OC[C@H](C[C@@H]2O[C@H]2[C@@H](C)[C@H](C)O)[C@@H](O)[C@H]1O.O.O.[Ca+2] [amorphous calcium salt of mupirocin] | poor thermal stability | sparingly water soluble | – |
| C/C(=C\C(=O)OCCCCCCCCC(=O)O)C[C@@H]1OC[C@H](C[C@@H]2O[C@H]2[C@@H](C)[C@H](C)O)[C@@H](O)[C@H]1O [Calcium mupirocin dihydrate, mupirocin calcium dihydrate] | – | – | about 10 μm |
